# Laboratory results published in US20150343016A1, “CHEMICAL ENTITIES AND THERAPEUTIC USES THEREOF” (The Regents of the University of Colorado, a body corporate, priority 2010, published 2015).
# “Also recorded” adds a separate entry of the source.
# Tests used:
# Assay type in all cases: cell-based, human
# [1] = system: head and neck squamous cell carcinola line (UMSCC2B); assay: MTT assay, bouvardin with radiation, UMSCC2B; conditions: over a wide range of concentrations
# Procedure: MTT assays were used to test the effects of bouvardin alone and in combination with radiation on numerous cell lines. Bouvardin and radiation synergize in non-small cell lung cancer cell line (H157) and head and neck squamous cell carcinola line (UMSCC2B) over a wide range of concentrations between bouvardin and radiation. FIG. 8 depicts this synergy in these two cell lines. The efficiency of bouvardin in sensitizing cancer cells to radiation is measured in terms of Combination Index (CI) as determined by Calcusyn software. CI values are either above, below or equal to 1, indicating antagonizing, synergistic or additive effects respectively. “Gy” in FIG. 8 stands for “Gray,” a radiation unit.
# (§1) The growth inhibitory effects of Bouvardin with ionizing radiation (IR) were evaluated using a modified tetrazolium salt (MTT) assay. In the MTT assay, 1,000 to 2,000 viable cells were plated in 100 uL of growth medium in 96-well plates (Corning, Ithaca, N.Y.). Following an overnight incubation, drug was added in varying concentrations and the plates were irradiated on the same day (co-treatment) or 24 hr later (pre-treatment) and incubated for 6 to 7 days. The tetrazolium salt was added at a concentration of 0.4 mg/mL to each well following the 6- to 7-day treatment. […] The absorbency of each well was measured using an automated plate reader (Molecular Devices, Sunnyvale, Calif.). […]
# H157 cells = assay: MTT assay, Bouvardin with ionizing radiation, H157
# Procedure: “Combination Index” computation. Combination Indices were calculated using CalcuSyn software (Biosoft), which uses the method of Chou and Talalay. This method first computes drug-induced effect using the Hill Equation: where E is the measured effect; C is the drug concentration; Emax is the full range of drug effect, usually at or near 100%; IC50 is the drug concentration producing the median effect of 50%; and n is the curve shape parameter describing the steepness of the concentration-effect relationship. The Chou and Talalay method then linearizes the Hill Equation by logarithmic transformation as: where fu is the fraction of cells left unaffected after drug exposure, fa is the fraction of cells affected by the exposure, C is the drug concentration used, Cm is the concentration to achieve the median effect, and n is the curve shape parameter. Cm and n are equivalent to IC50 and n, respectively, in the Hill Equation. The values of n (obtained from the slope), nlog(Cm) (obtained from the absolute value of the intercept), and, therefore, Cm are obtained by plotting log(fu−1−1) versus log(C). These numbers are then used to compute the Combination Index (CI) according to the formula: CI=(D)1/(Dx)1+(D)2/(Dx)2 (26). (Dx)1 and (Dx)2 are the doses required to achieve a given effect level for each treatment, i.e. a specified value of Fraction Affected or Fa. (D)1 and (D)2 are the doses of each treatment in a given combination which gives the same Fa.
# In FIG. 16 MTT assays were used to determine the effect of Bouvardin in combination with IR. Cells were either treated with drug for 24 hr prior to irradiation (A and C, ‘pre-treatment’) or drug and radiation were applied on the same day (B and D, ‘same day treatment’). (A & B) Fraction of cells killed or otherwise eliminated (Fraction Affected) at different doses of Bouvardin and 0 or 2 Gy of IR. (C & D) Combination Index (CI) data from two experiments with pre-treatment protocol, to illustrate reproducibility. CIs below 1 indicate synergy.
# In the absence of radiation, the drug has an IC50 (Fraction Affected, Fa=0.5) in the nM range ([…], ‘0 Gy’). Fraction Affected is determined by the formula, 1−(x/y), where x is the MTT signal for the experimental sample and y is the MTT signal for the un-treated control. For example, if the MTT signal in the experimental is 30% of the MTT signal in the control, fraction affected is 0.7. Radiation increased the Fa in a dose-dependent manner in the absence of drug. The addition of the drug further increased the Fa for each dose of radiation. This happened whether the drug was added 24 hr before irradiation (pre-treatment, FIGS. 16A,C) or concurrently (same day treatment, FIGS. 16B,D).
# The efficiency of Bouvardin in increasing the effect of radiation on cancer cells is measured in terms of Combination Index (CI) as determined by CalcuSyn software according to the method of Chou and Talalay. This method is widely used in biomedical literature and it has been applied to combinations of antitumor drugs. CI values are calculated from Fa values for multiple drug and radiation doses such as those shown in FIGS. 16 A and B. CI computation takes into account the shape of the dose-response curve, the maximal effect, the intercept, and the IC50 values for drug at each dose of radiation and IC50 for radiation at each dose of drug. […]
# The growth inhibitory effects of Bouvardin with ionizing radiation (IR) were evaluated using a modified tetrazolium salt (MTT) assay. […]
# [2] = system: 17 cell lines including Head and Neck Squamous Cell Carcinoma and non-small cell lung cancer lines; assay: MTT assays, Bouvardin with radiation, panel of 17 cell lines
# Text: The observation that Bouvardin enhanced the effect of radiation on Drosophila larvae led us to question whether this effect would translate to a mammalian system. In order to determine what cell lines should be used to create tumor xenografts in mice, MTT assays for cell viability were used first to test the effects of Bouvardin alone and in combination with radiation in human cancer cells. MTT assays measure cell viability by measuring mitochondrial enzyme function. We used 17 cell lines including Head and Neck Squamous Cell Carcinoma and non-small cell lung cancer lines.
# The data for non-small cell lung cancer cell line (H157) is depicted in FIG. 16.
# as §1, with “treatment. The plates were incubated with the salt for 4 hours at 37° C.” for “treatment.”
structure (smiles),measurement,setting,value
"COc1ccc(C[C@H]2C(=O)N[C@H](C)C(=O)N(C)[C@@H]3C(=O)N(C)[C@@H](Cc4ccc(O)c(c4)Oc4ccc(cc4)[C@H]3O)C(=O)N[C@@H](C)C(=O)N[C@H](C)C(=O)N2C)cc1 (stereo in doubt) [Bouvardin, bouvardin]",interaction of Bouvardin with radiation,[1],synergize
same,interaction with radiation in cell-based assays,H157 cells; 0.3 μM of drug,synergistically
same,interaction with radiation in cell-based assays,H157 cells; 0.6 μM of drug,additively/antagonistically
same,interaction of Bouvardin with radiation,H157 cells; H157,synergy over a wide range of doses; also recorded: synergize
same,"IC50 (Fraction Affected, Fa=0.5)","H157 cells; H157, in the absence of radiation (0 Gy)",nM range
same,interaction of Bouvardin with radiation,"H157 cells; H157, listed as bouvardin",synergizes with ionizing radiation
same,interaction of Bouvardin with radiation across the panel,[2],"synergize in most, but not all of these cell lines"
